# Measurements from US12251401B2, “Synthesis and antimicrobial uses of dinuclear silver(I) pyrazolates” (The Florida International University Board of Trustees, priority 2018, dated 2025).
# Like-named read-outs stand apart in the source and are kept apart here.
# Legend:
# Pseudomonas aeruginosa = assay: Skin and soft tissue infection (SSTI) two-layer agar model, zone of inhibition around KBr pellets; format: cell-based; details: KBr pellet with 2% (w/w) of substance on P. aeruginosa lawn, incubation at 37° C. for 18 h
# Excerpt: A skin and soft tissue infection (SSTI) model was used to study the antibacterial properties of three silver complexes. In this model, two layers of agar were employed to mimic a tissue infection with a nutrient rich bottom and the soft-top layer to allow for even dispersal of bacteria. The top soft agar acts like the skin and as bacteria grow they migrate towards the bottom nutrient layer mimicking an infected tissue. Frozen samples of Pseudomonas Aeruginosa were thawed and streaked on an agar plate. A single colony was selected and grown in Luria Broth (LB) for 18 h. The suspension was diluted with LB until an A600 (absorbance) of 0.5 was reached. The soft agar bacterial suspension was prepared by adding 120 mL of the above solution to 100 mL 0.8% (w/v) agar with 1% NaCl, which had been autoclaved and cooled to 45° C. before addition. The suspension was gently vortexed and 8 mL was spread evenly on the surface of 20 mL of a 1.5% (w/v) TSB agar plate (100×15 mm^2) and allowed to solidify. The plates were incubated for 2 h at 37° C. in order for the bacteria to reach log phase before bactericidal experiments were performed.
# Blank KBr pellets (typically utilized for recording IR spectra) and KBr pellets with 2% (w/w) of three complexes (1), (2) and (5), each weighing between 34 and 46 mg, were evenly mulled and pressed with a two-ton load. Three blanks, containing PTA, or 4-Cl-pzH, or PPh3, were also prepared in the same manner. Pellets were carefully placed on the plates (see Example 8) after 2 h of incubation at 37° C.
# A previously developed soft tissue infection (SSTI) model has been utilized for the present antibacterial studies. […] The gradient causes the bacteria to slowly travel from the slender top layer to the nutrient-rich bottom layer, much alike what would occur in a typical skin infection.
# P. aeruginosa = assay: Bacterial eradication assessed using the optical density method; format: cell-based, Pseudomonas aeruginosa
# Excerpt: FIGS. 51A-51B show the results of bacterial eradication by compounds of complex (5) and complex (29) assessed using the optical density method.
# (§1) Both complex (5) and complex (29) were comparatively tested against P. aeruginosa.
# Solubility (qualitative) = format: physicochemical
# Excerpt: All complexes provided herein were neutral and soluble in variety of organic solvents.
# as §1
Compound,zone of bacterial clearing (zone of inhibition) (Pseudomonas aeruginosa),further results
"Clc1cn[nH]c1 [4-Cl-pzH, 4-Cl-pyrazole]",much smaller but still visible zones of bacterial growth inhibition,
"O=[N+]([O-])[O-].[Ag+] [AgNO3, silver nitrate]",Visible circular zones of bacterial clearing,
"c1ccc(P(c2ccccc2)c2ccccc2)cc1 [PPh3, triphenylphosphine]",no zone of inhibition,
"C1N2CN3CN1CP(C2)C3 [PTA, 1,3,5-triazaphosphaadamantane]",much smaller but still visible zones of bacterial growth inhibition,
disilver(I)-bis(μ-3-methyl-pyrazolido)bis(PTA) [complex (29)],,"eradication of the bacterial culture (P. aeruginosa; P. aeruginosa, lowest concentration tested, 31.25 μg/mL): ~90%; solubility in water and several bacterial growth media (Solubility (qualitative)): readily soluble"
disilver(I)-bis(μ-4-Cl-pyrazolido)(PPh3)3 [complex (2)],minimal bacterial clearance,
disilver(I)-bis(μ-4-Cl-pyrazolido)tetrakis(PPh3) [complex (1)],minimal bacterial clearance,
disilver(I)-bis(μ-4-Cl-pyrazolido)tetrakis(PTA) [complex (5)],Visible circular zones of bacterial clearing,"IC50, eradication of the bacterial culture (P. aeruginosa; P. aeruginosa culture, optical density, increasing concentrations): > 2000 µg/mL; solubility in aqueous media (Solubility (qualitative); aqueous media): highly soluble; solubility in water and several bacterial growth media (Solubility (qualitative); water and several bacterial growth media): readily soluble"
